# In ChEMBL document CHEMBL1201862, “PubChem BioAssay data set” (2004):
# Activity calls are given as the source filed them.
# Test system: not listed separately
# Assay: P. falciparum Dd2 growth inhibitors, dose response, SYBR Green, cherry-picked samples (AID 1159567)
# Format: functional, cell-based
# Settings: not given
row,Compound,AC50
1,COc1ccc(CN(C)C[C@@H]2Oc3c(NC(=O)c4ccc(-c5nccs5)cc4)cccc3C(=O)N([C@@H](C)CO)C[C@H]2C)cc1,3.25 µM (active)

# Target: Cytochrome P450 2C19 (Homo sapiens, UniProt P33261)
# Assay: Cytochrome panel assay with activity outcomes. Panel member name: p450-cyp2c19 Compounds with AC50 equal or less than 10 uM are considered active
# Format: functional
# Settings: read-out: AC50
# Chain of Cytochrome P450 2C19 (P33261 whole entry): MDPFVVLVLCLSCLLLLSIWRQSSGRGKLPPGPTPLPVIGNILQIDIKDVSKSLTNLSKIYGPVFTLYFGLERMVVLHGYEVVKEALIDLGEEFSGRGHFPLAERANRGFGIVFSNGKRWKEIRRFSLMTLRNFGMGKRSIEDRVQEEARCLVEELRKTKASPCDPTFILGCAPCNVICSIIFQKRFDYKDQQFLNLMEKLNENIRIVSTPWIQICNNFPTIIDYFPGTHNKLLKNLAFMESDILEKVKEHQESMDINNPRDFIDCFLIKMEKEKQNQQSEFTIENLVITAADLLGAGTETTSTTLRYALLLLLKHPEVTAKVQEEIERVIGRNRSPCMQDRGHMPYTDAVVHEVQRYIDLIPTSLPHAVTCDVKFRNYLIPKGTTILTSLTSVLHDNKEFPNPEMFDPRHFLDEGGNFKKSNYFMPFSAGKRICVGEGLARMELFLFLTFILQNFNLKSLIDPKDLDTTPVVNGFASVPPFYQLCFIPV
row,Compound,AC50
1,CCCCCCCC/C=C\CCCCCCCC(=O)N[C@@H](CO)Cc1ccc(O)cc1,31.6 µM (inconclusive)
2,COC(=O)CCC(=O)NNC(=O)CCCOc1ccc(Cl)cc1Cl,3.55 µM (inconclusive)
3,Cc1cc(C)cc(-n2nnnc2SCC(=O)Nc2nc(-c3ccc(F)cc3)cs2)c1,5.01 µM (inconclusive)

# Target: Cytochrome P450 2D6 (Homo sapiens, UniProt P10635);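 also: CYP2D6 member of a cytochrome P450 panel assay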
# Assay: not given
# Settings: not given
# Chain of Cytochrome P450 2D6 (P10635 whole entry): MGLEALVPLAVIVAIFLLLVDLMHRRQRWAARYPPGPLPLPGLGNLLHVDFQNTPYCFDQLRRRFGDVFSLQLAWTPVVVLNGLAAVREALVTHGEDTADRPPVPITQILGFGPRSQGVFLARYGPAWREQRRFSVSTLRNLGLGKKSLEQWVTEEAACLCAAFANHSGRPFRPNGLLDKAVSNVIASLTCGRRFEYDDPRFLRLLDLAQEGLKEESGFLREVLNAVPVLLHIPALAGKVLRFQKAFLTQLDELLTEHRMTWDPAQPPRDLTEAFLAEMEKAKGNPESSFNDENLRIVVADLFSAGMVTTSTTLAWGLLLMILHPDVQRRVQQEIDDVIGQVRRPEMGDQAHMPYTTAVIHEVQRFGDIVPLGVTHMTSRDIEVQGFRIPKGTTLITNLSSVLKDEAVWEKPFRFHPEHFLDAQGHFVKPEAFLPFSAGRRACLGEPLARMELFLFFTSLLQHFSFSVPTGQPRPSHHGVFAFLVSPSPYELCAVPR
row,Compound,AC50
1,O=C(Cc1ccccc1[N+](=O)[O-])NCc1ccccc1Cl,15.8 µM (inconclusive)

# Target: T1, Cytochrome P450 1A2 (Homo sapiens, UniProt P05177);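 also: PubChem cytochrome P450 panel assay, CYP1A2 panel member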
# T1 sequence (P05177 whole entry): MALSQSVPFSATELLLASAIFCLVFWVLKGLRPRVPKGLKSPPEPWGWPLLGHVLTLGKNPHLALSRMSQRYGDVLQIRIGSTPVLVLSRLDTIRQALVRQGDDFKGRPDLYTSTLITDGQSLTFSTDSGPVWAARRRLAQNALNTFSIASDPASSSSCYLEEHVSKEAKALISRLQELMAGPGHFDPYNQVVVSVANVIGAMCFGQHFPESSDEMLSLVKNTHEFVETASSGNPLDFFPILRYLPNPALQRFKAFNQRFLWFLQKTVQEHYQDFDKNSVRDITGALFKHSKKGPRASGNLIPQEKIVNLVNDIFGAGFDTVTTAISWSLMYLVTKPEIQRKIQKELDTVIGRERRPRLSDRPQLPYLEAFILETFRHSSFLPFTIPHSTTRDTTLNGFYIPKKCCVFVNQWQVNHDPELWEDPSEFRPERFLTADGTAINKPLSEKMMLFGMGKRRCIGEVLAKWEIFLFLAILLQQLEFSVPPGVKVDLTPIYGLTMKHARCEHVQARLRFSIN
# Assay: not given
# Settings: not given
row,Compound,AC50
1,CCCCCCCC/C=C\CCCCCCCC(=O)N[C@@H](CO)Cc1ccc(O)cc1,25.1 µM (inconclusive)
2,Cc1cc(C)cc(-n2nnnc2SCC(=O)Nc2nc(-c3ccc(F)cc3)cs2)c1,3.16 µM (inconclusive)

# Target: Cytochrome P450 3A4 (Homo sapiens, UniProt P08684);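 also: CYP3A4 tested as one member of a cytochrome P450 panel screen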
# Assay: not given
# Settings: not given
# Chain of Cytochrome P450 3A4 (P08684 whole entry): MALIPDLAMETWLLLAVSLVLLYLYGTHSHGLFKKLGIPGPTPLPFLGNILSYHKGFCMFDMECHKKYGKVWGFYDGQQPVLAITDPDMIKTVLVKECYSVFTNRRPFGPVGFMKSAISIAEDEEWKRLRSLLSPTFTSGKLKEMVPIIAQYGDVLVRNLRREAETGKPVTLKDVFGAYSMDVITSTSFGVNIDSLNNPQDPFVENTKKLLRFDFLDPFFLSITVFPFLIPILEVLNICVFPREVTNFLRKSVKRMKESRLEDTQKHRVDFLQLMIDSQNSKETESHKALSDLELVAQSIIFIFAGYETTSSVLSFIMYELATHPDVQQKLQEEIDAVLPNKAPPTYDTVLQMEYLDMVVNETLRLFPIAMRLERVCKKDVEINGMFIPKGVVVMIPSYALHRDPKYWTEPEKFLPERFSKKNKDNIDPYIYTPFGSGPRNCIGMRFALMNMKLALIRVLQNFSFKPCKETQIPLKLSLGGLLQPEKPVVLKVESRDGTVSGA
row,Compound,AC50
1,O=c1cnc2cnc(N3CCOCC3)nc2n1C[C@H]1CCCO1,15.8 µM (inconclusive)
2,O=C(Cc1ccccc1[N+](=O)[O-])NCc1ccccc1Cl,15.8 µM (inconclusive)
3,COC(=O)CCC(=O)NNC(=O)CCCOc1ccc(Cl)cc1Cl,15.8 µM (inconclusive)
4,COc1ccc(S(=O)(=O)N2CCC(C(=O)NCC3CCCO3)CC2)cc1C (centres undefined),15.8 µM (inconclusive)

# Target: T2, Polyadenylate-binding protein 1 (Homo sapiens, UniProt P11940)
# Assay: PABP1 MLLE–PAM2 interaction inhibitors, dose response, miRNA deadenylation inhibitor project, biochemical, fluorescence polarization, Cy5-PAM2 peptide, secondary (AID 602260)
# Format: functional
# Settings: read-out: IC50_Mean
# T2 sequence (P11940 whole entry): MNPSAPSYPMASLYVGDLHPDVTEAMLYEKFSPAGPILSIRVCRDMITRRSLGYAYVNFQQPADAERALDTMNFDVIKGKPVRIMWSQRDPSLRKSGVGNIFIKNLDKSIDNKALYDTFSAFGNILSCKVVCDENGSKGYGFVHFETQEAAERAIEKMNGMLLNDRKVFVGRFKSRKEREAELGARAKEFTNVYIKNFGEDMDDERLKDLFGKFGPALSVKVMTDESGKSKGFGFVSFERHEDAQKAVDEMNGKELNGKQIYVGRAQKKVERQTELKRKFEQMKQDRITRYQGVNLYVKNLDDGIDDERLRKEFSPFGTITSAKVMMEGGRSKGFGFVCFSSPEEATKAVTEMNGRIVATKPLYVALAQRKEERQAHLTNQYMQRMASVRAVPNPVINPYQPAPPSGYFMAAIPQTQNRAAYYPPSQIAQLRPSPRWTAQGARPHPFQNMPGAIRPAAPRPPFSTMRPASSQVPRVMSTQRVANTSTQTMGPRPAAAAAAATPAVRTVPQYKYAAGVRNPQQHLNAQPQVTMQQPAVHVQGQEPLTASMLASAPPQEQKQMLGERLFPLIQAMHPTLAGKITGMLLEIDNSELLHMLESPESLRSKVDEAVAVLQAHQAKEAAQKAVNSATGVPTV
row,Compound,IC50
1,Cc1sc(NC(=O)CCl)c(C(=O)c2ccccc2)c1C,> 66 µM (inactive)
2,O=C1CSC(=S)N1/N=C/c1cccnc1,> 66 µM (inactive)
3,Cc1ccc(NC(=O)CSC2=NCCN2)cc1,> 66 µM (inactive)
4,Cc1[nH]n(C(N)=S)c(=O)c1/N=N/c1ccc(S(=O)(=O)N2CCCC2)cc1,> 66 µM (inactive)
5,CC(=O)c1c(S)nc(-c2ccccc2)nc1NC(=O)c1ccccc1,> 66 µM (inactive)

# Target: T3, Carboxy-terminal domain RNA polymerase II polypeptide A small phosphatase 1 (Homo sapiens, UniProt Q9GZU7)
# T3 sequence (Q9GZU7 whole entry): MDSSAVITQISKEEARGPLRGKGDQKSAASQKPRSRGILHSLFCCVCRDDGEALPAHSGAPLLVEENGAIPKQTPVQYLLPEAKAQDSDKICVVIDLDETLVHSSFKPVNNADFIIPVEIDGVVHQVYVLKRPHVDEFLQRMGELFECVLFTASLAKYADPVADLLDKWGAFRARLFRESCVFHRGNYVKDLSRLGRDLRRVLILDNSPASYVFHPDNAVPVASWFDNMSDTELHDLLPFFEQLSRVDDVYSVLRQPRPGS
# Assay: inhibitors of CTDSP1, concentration-response testing, biochemical assay, absorbance-based, actives from ultra-high-throughput screening (AID 540297)
# Format: functional
# Settings: not given
row,Compound,IC50
1,O=C(CN1C(=O)NC2(CCCC2)C1=O)OCc1cc(=O)n2cc(Br)ccc2n1,6.81 µM (active)
2,Cc1cc(=O)oc2cc(NC(=O)c3cccc(F)c3)ccc12,4.51 µM (active)
3,COC(=O)c1ccc(/C=N/NC(=O)c2cccc(F)c2)cc1,11.4 µM (active)
4,CCNc1nc(NCC)n2c(SCC(=O)Nc3ccc(F)cc3)nnc2n1,10.3 µM (active)

# Target: T4, Protein RecA (Mycobacterium tuberculosis, UniProt P9WHJ3)
# T4 sequence (P9WHJ3 whole entry): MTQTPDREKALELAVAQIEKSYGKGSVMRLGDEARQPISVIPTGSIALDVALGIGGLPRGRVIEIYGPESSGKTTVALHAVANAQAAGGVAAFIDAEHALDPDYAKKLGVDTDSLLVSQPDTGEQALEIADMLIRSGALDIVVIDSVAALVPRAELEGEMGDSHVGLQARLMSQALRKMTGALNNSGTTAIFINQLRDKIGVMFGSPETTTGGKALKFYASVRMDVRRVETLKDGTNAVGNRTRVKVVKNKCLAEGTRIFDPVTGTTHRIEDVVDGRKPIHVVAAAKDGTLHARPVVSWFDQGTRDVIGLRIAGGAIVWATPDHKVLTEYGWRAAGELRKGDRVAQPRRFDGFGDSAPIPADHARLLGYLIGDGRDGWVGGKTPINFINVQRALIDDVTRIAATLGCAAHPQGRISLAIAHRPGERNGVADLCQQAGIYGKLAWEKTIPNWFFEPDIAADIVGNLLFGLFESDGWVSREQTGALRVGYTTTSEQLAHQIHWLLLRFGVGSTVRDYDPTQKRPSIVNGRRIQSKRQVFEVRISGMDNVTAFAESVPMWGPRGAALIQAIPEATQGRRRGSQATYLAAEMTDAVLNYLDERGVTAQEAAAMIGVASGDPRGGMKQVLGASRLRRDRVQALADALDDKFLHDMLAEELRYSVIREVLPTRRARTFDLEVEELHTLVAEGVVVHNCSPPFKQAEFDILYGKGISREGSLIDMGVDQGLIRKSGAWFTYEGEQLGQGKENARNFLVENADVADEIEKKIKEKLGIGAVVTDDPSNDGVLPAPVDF
# Assay: Fluorescence Cell-Free Homogeneous Dose Retest to Identify Inhibitors of RecA-Intein Splicing Activity. [Related pubchem assays (depositor defined):AID2097, AID2223, AID489010, AID492950]
# Format: functional
# Settings: not given
row,Compound,EC50
1,Cc1sc(NC(=O)CCl)c(C(=O)c2ccccc2)c1C,3.55 µM (active)

# Target: Cytochrome P450 2C9 (Homo sapiens, UniProt P11712)
# Assay: not given
# Settings: not given
# Chain of Cytochrome P450 2C9 (P11712 whole entry): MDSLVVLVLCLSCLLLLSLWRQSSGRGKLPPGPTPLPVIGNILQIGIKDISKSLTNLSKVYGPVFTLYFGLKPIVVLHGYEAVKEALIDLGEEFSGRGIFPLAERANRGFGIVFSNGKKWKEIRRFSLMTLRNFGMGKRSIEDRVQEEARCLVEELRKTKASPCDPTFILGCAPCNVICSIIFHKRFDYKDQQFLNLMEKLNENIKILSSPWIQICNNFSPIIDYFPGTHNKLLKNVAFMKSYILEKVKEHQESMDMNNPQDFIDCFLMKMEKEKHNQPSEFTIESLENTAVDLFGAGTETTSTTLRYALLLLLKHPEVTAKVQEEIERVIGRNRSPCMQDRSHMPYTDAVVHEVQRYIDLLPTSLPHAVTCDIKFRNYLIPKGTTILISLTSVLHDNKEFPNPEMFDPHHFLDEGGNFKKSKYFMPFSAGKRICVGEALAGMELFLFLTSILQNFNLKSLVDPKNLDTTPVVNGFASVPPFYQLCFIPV
row,Compound,AC50
1,CN(C)Cc1ccccc1-c1cc(NC2CC2)ncn1,inconclusive
2,C=CCOc1ccc(CNC(C)(C)CO)cc1OCC.Cl,inconclusive
3,CCCCCCCC/C=C\CCCCCCCC(=O)N[C@@H](CO)Cc1ccc(O)cc1,inconclusive
4,O=c1cnc2cnc(N3CCOCC3)nc2n1C[C@H]1CCCO1,inconclusive
5,O=C(Cc1ccccc1[N+](=O)[O-])NCc1ccccc1Cl,inconclusive
6,COC(=O)CCC(=O)NNC(=O)CCCOc1ccc(Cl)cc1Cl,inconclusive
7,Cc1cc(C)cc(-n2nnnc2SCC(=O)Nc2nc(-c3ccc(F)cc3)cs2)c1,inconclusive
8,COc1ccc(S(=O)(=O)N2CCC(C(=O)NCC3CCCO3)CC2)cc1C (centres undefined),inconclusive

# Target: T2, Polyadenylate-binding protein 1
# Assay: PABP1 MLLE–PAM2 binding inhibitor potency, dose response, biochemical, fluorescence polarization, FITC-PAM2 peptide (AID 602259)
# Format: functional
# Settings: read-out: IC50_Mean
row,Compound,IC50
1,Cc1sc(NC(=O)CCl)c(C(=O)c2ccccc2)c1C,> 66 µM (inactive)
2,O=C1CSC(=S)N1/N=C/c1cccnc1,> 66 µM (inactive)
3,Cc1ccc(NC(=O)CSC2=NCCN2)cc1,> 66 µM (inactive)
4,Cc1[nH]n(C(N)=S)c(=O)c1/N=N/c1ccc(S(=O)(=O)N2CCCC2)cc1,> 66 µM (inactive)
5,CC(=O)c1c(S)nc(-c2ccccc2)nc1NC(=O)c1ccccc1,> 66 µM (inactive)
